Data: US5585381A, “Pyrimidine derivatives and pharmaceutical composition” (Kureha Chemical Industry Co., Ltd., priority 1994, dated 1996)
pIC50: −log10 of the molar value.

What was measured:
[1] = tested on: kidney disease model rats; test: Action to depress blood pressure in kidney disease model rats (tail cuff); assay type: in vivo, Sprague-Dawley female rats; conditions: 20 mg/kg per os; after two days; control 210 mmHg
Description: (§1) The compounds of the present invention and the reference substance were forcedly administered per os to kidney disease model rats, and the action to depress blood pressure was observed. The kidney disease model rats were prepared by ligature of branches of renal artery in accordance with the conventional method, that is, the left hilum renalis of Sprague-Dawley female rats was exposed under anesthesia, and one of four secondary branches of renal artery was left unligated, while the remaining three branches were ligated, respectively. After a week, the hilum renalis (artery, vein, and ureter) of the right kidney were further ligated to thereby prepare the rats whose renal function was lowered to approximately 1/8 of the normal function. Each group consisted of eight rats. The drugs to be tested (20 mg/kg) were administered to each administering group, and only water was administered to control group. After two days from the administration, the systolic blood pressure was measured by the tail cuff method using a blood pressure measuring apparatus (UR5000; Ueda).

[2] = target: T1, angiotensin II receptor subtype 1 (AT1) (Oryctolagus cuniculus, UniProt P34976); test: Binding to angiotensin II receptor subtype 1 (AT1); parameters: species or system rabbits (adrenal glands); conditions: 3H-angiotensin II tracer; for pIC50: room temperature, 3 hours
T1 construct: from adrenal glands in rabbits; from tissue; host or cells: rabbit adrenal glands
T1 sequence (P34976 1-359): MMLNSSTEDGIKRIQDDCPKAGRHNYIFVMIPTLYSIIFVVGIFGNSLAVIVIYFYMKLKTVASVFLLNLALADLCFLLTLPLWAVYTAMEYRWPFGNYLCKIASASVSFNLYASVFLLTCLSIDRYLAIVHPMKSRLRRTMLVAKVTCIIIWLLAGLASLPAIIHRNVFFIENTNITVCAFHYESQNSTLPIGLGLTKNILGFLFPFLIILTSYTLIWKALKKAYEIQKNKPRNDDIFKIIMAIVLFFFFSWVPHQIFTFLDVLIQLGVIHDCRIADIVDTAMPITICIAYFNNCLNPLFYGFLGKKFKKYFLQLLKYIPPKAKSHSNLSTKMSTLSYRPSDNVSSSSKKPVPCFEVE
Description: (§2) In this Example, the affinity to the angiotensin II receptor subtype 1 or subtype 2 was evaluated by a binding assay in accordance with the method described in Biochem. Pharmacol., 33, 4057-4062 (1984).
(§3) Specifically, the measurement of the total binding in the presence of each drug was performed as follows:
(§4) A mixture (final volume=0.25 ml) of a drug in a given concentration (the drug was dissolved in DMSO, and diluted to a double volume with a buffer attached to a drug discovery system to prepare sample for the assay; 0,025 ml), a tracer (0.025 ml), and receptors (0.2 ml) was incubated [in the case of the angiotensin II receptor subtype 1 (AT1), at room temperature for 3 hours, and in the case of the subtype 2 (AT2), at 37° C. for 1 hour]. Then, the reaction mixture was filtered with suction (GF/C filter was used in AT1, and GF/B filter was used in AT2). The filter papers after filtration with suction (the tracer bound to the receptors) were counted by a γ-well counter (ARC-500, Aloka). The non-specific bindings were measured by repeating the above method, except that a large excess amount of a displacer was added. The specific binding of the drug in the given concentration was calculated by subtracting the non-specific binding from the total binding, respectively.
(§5) In AT1 and AT2, the percentages to inhibit the bindings of radioactive ligands (tracer) to receptors by the drugs to be tested (IC50 value of concentration to show 50% inhibition, or binding inhibition % in 100 μM) were measured, using the drugs to be tested and control drugs in the given concentration.

[3] = tested on: kidney disease model rats; test: Renal function indicatory value (action to kidney diseases); assay type: in vivo, Sprague-Dawley female rats; conditions: 20 mg/kg/day per os, two weeks; for Creatinine clearance (CCr): control 0.20; for Creatinine (serum, Scr): control 2.0; for Urea nitrogen (BUN): control 100
Description: The kidney disease model rats were prepared by ligature of branches of renal artery in accordance with the conventional method, that is, the left hilum renalis of Sprague-Dawley female rats was exposed under anesthesia, and one of four secondary branches of renal artery was left unligated, while the remaining three branches were ligated, respectively. […] Each group consisted of eight rats. The drugs to be tested (20 mg/kg) were administered to each administering group, and only water was administered to control group. After two days from the administration, the systolic blood pressure was measured by the tail cuff method using a blood pressure measuring apparatus (UR5000; Ueda).
The kidney disease model rats were prepared as in Example 21. Fifteen groups (8 rats per group) were sleeked in a manner so that there were no major differences between each group in the serum creatinine value and the urea nitrogen value indicating renal function. The rats in each group were allowed to freely take up feed and water. […] To the rats in the control group, only water was forcedly administered per os every day. After two weeks, 0.2 ml of blood was collected from the carotid artery of the rat under anesthesia, and centrifuged to obtain serum. Using 25 μl of the serum, serum creatinine (Scr) was measured by a creatinine analytical instrument (Beckman). Using 10 μl of the serum, urea nitrogen (BUN) was measured by a BUN analytical instrument (Beckman). Creatinine clearance was evaluated as follows:
After serum creatinine measurement, rats were placed in urinary metabolic cages for 24 hours to collect urine. Urinary creatine concentration (Ucr) was measured by a creatinine analytical instrument, and total volume of urination (Uvol) was also measured. Creatinine clearance (CCr) was calculated by the following formula: [formula]

[4] = target: T2, angiotensin II receptor subtype 2 (AT2) (Bos taurus, UniProt G5E6F7); test: Binding to angiotensin II receptor subtype 2 (AT2); parameters: species or system bovine (cerebellar cortex); conditions: 125I-Tyr4-angiotensin II tracer, 37° C., 1 hour
T2 construct: from cerebellar cortex in bovine; from tissue; host or cells: bovine cerebellar cortex
T2 sequence (G5E6F7 1-362): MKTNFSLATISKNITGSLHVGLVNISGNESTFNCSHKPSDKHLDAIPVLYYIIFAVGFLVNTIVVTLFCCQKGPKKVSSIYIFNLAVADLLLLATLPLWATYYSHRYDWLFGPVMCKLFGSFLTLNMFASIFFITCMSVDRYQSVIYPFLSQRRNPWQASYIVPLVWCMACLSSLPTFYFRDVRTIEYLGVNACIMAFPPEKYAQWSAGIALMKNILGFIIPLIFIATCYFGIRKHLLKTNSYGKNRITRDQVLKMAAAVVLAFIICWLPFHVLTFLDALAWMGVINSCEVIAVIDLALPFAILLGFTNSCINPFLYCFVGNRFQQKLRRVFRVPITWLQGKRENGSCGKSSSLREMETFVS
Description: as §2, §3, §4, §5
from cerebellar cortex in bovine
tracer: ^125 I-Tyr^4 -angiotensin II

[5] = tested on: kidney disease model rats; test: Action to survival time of kidney diseased animals; assay type: in vivo, Sprague-Dawley female rats; conditions: 20 mg/kg/day per os; observation eight weeks (upper limit); control 5.0
Description: as §1
The kidney disease model rats were prepared as in Example 21. Fifteen groups (8 rats per group) were prepared in a manner so that there was no major difference between the groups in the serum creatinine value and the urea nitrogen value indicating renal function. The rats in each group were allowed to freely take up feed and water. […] To the rats in the control group, only water was forcedly administered per os every day. If kidney diseases are aggravated, the rat will die of uremia. Thus, the survival time was observed as comprehensive indication of the improvement effect on the kidney diseases. The observation period was eight weeks. Thus if all rats survived, the average survival time is eight weeks and it is an upper limit.

[6] = ACE inhibitor; cited from earlier work

| Structure (SMILES) | Blood pressure (average systolic) [1] | pIC50 [2] | Creatinine clearance (CCr) [3] | Creatinine (serum, Scr) [3] | Urea nitrogen (BUN) [3] | inhibition at 100 µM [4] | Average survival time [5] | inhibition at 100 µM [2] | blood pressure [6] | progress of renal dysfunction [6] |
| --- | --- | --- | --- | --- | --- | --- | --- | --- | --- | --- |
| CCCCC(=O)Nc1c(NCc2ccc(C(=O)O)cc2)ncnc1OC [compound 2, 4-[[(6-methoxy-5-valeramido)pyrimidin-4-yl]aminomethyl]benzoic acid] | 201 mmHg | 4.55 | 0.35 mL/min | 1.6 mg/dL | 78 mg/dL | 0% | 7.5 weeks | – | – | – |
| CCCCC(=O)Nc1c(NCCc2ccccc2)ncnc1NCc1ccc(OC)cc1 [compound 90, 4-[[(6-phenethylamino-5-valeramido)pyrimidin-4-yl]aminomethyl]anisole] | 208 mmHg | – | 0.29 mL/min | 1.7 mg/dL | 82 mg/dL | 0% | 6.9 weeks | 20% | – | – |
| CCCCC(=O)Nc1c(NCc2ccc(OC)cc2)ncnc1NCc1ccc(C(=O)O)cc1 [Compound No. 10] | 208 mmHg | – | 0.33 mL/min | 1.6 mg/dL | 81 mg/dL | 0% | 7.0 weeks | 6% | – | – |
| CCOC(=O)[C@H](CCc1ccccc1)N[C@@H](C)C(=O)N1CCC[C@H]1C(=O)O [enalapril] | – | – | – | – | – | – | – | – | blood pressure is lowered | the progress of renal dysfunction is improved |
| CCCCC(=O)Nc1c(NCCCc2ccccc2)ncnc1NCc1ccc(C(=O)O)cc1 [Compound No. 9, 4-[[(6-phenylpropylamino-5-valeramido)pyrimidin-4-yl]aminomethyl]benzoic acid] | 204 mmHg | – | 0.31 mL/min | 1.6 mg/dL | 80 mg/dL | 0% | 6.9 weeks | 6% | – | – |
| CCCCC(=O)Nc1c(NCc2ccccc2)ncnc1NCc1ccc(OC)cc1 [Compound No. 89, 4-[[(6-benzylamino-5-valeramido)pyrimidin-4-yl]aminomethyl]anisole] | 204 mmHg | – | 0.33 mL/min | 1.6 mg/dL | 80 mg/dL | 0% | 7.0 weeks | 11% | – | – |
| CCCCC(=O)Nc1c(NCc2ccc(C(=O)O)cc2)ncnc1OCc1ccccc1 [Compound No. 11, 4-[[(6-benzyoloxy-5-valermido)pyrimidin-4-yl]aminomethyl]benzoic acid] | 202 mmHg | 4.82 | 0.35 mL/min | 1.6 mg/dL | 78 mg/dL | – | 7.5 weeks | – | – | – |
| CCCCC(=O)Nc1c(NCc2ccc(C(=O)O)cc2)ncnc1N(C)Cc1ccccc1 [Compound No. 61, 4-[[(6-N-benzylmethylamino-5-valeramido)pyrimidin-4-yl]aminomethyl]benzoic acid] | 205 mmHg | – | 0.32 mL/min | 1.6 mg/dL | 81 mg/dL | 0% | 6.9 weeks | 42% | – | – |
| CCCCC(=O)Nc1c(NCCc2ccccc2)ncnc1NCc1ccc(C(=O)O)cc1 [Compound No. 8, 4-[[(6-phenethylamino-5-valeramido)pyrimidin-4-yl]aminomethyl]benzoic acid] | 203 mmHg | – | 0.33 mL/min | 1.6 mg/dL | 79 mg/dL | 0% | 7.1 weeks | 0% | – | – |
| C[C@H](CS)C(=O)N1CCC[C@H]1C(=O)O [captoril] | – | – | – | – | – | – | – | – | blood pressure is lowered | the progress of renal dysfunction is improved |
| CCCCC(=O)Nc1c(NCc2ccccc2)ncnc1NCc1ccc(C(=O)O)cc1 [Compound No. 7, 4-[[(6-benzylamino-5-valeramido)pyrimidin-4-yl]aminomethyl]benzoic acid] | 208 mmHg | – | 0.33 mL/min | 1.6 mg/dL | 80 mg/dL | 0% | 7.0 weeks | 1% | – | – |
| CCCCC(=O)Nc1c(Cl)ncnc1NCc1ccc(OC)cc1 [Compound No. 48, 4-[[(6-Chloro-5-Valeramido)pyrimidin-4-yl]aminomethyl]anisole] | 207 mmHg | – | 0.30 mL/min | 1.7 mg/dL | 83 mg/dL | 0% | 6.9 weeks | 0% | – | – |
